# Read-outs that look alike come from different tables or passages of the source. Marks after values point to notes of the source that are not given here.
# What was measured:
# [1] = system: methicillin-resistant Staphylococcus aureus MRSA-2 (clinical isolate); assay: MIC broth microdilution, MRSA-2; type: cell-based; conditions: for MIC: read-out: MIC MRSA-2
# Outline: (§1)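 Growth inhibition is scored visually with OD600 support after 16 to 18 hours at 37° C, the MIC taken as the lowest compound concentration without bacterial growth. Compounds are tested as two-fold dilutions from 0.10 to 100 μM in Luria Broth against ~10^5 log-phase cells per well.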
# MRSA BAA-1707 = assay: MIC broth microdilution, MRSA BAA-1707; type: cell-based, Staphylococcus aureus; conditions: for MIC MRSA 1707: Table 4
# Outline: (§2)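 Log-phase bacteria (~10^5 cells per well) were added to eleven two-fold compound dilutions in Luria Broth, covering 0.10 to 100 μM. Growth inhibition was scored per CLSI broth microdilution, supported by OD600 reads. DMSO, serially diluted from 1% v/v, served as negative control.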
# [2] = system: methicillin-resistant Staphylococcus epidermidis (MRSE strain ATCC 35984); assay: MIC broth microdilution, MRSE 35984; type: cell-based
# Outline: as §1
# [3] = system: vancomycin-resistant Enterococcus faecium (VRE strain ATCC 700221); assay: MIC broth microdilution, VRE 700221; type: cell-based
# Outline: as §1
# [4] = system: Acinetobacter baumannii (ATCC 1794); assay: MIC broth microdilution, A. baumannii 1794; type: cell-based; conditions: for MIC A. baumannii 1794: in µM
# Outline: as §1
# [5] = system: Pseudomonas aeruginosa (PAO1); assay: MIC broth microdilution, PAO1; type: cell-based
# Outline: as §1
# [6] = system: human red blood cells (hRBC); assay: Hemolysis of red blood cells; type: cell-based
# Outline: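 hRBCs (2% suspension) exposed to compounds at 0.2–200 μM (ten-point dose-response) for 1 h at 37 °C; after centrifugation, haemoglobin release read as supernatant OD at 405 nm. DMSO set as 0% and Triton X as 100% haemolysis; HC50 from dose-response curves, three independent experiments.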
# [7] = system: methicillin-sensitive Staphylococcus aureus ATCC 29213; assay: MIC broth microdilution, S. aureus 29213; type: cell-based
# Outline: as §2
# [8] = system: MRSA-1 (clinical isolate); assay: MIC broth microdilution, MRSA-1; type: cell-based, Staphylococcus aureus
# Procedure: (§3) The minimum inhibitory concentration (MIC) for each tested compound was determined by the broth microdilution method as recommended by the Clinical and Laboratory Standards Institute (CLSI). In a 96-well plate, eleven two-fold serial dilutions of each compound were made in a final volume of 100 μL Luria Broth. Each well was inoculated with ˜10^5 bacterial cells at the initial time of incubation, prepared from a fresh log phase culture (OD600 of 0.5 to 1.0 depending on bacterial strain). […] (MIC values were supported by spectrophotometric readings at OD600). DMSO served as our vehicle and negative control in each microdilution MIC assay. DMSO was serially diluted with a top concentration of 1% v/v.
# (§4) Each well was inoculated with ˜10^5 bacterial cells at the initial time of incubation, prepared from a fresh log phase culture (OD600 of 0.5 to 1.0 depending on bacterial strain). […] The concentration range tested for each compound during this study was 0.10 to 100 μM. DMSO served as our vehicle and negative control in each microdilution MIC assay. DMSO was serially diluted with a top concentration of 1% v/v. All MIC values were obtained from a minimum of three independent experiments.
# [9] = system: SA-129 (clinical isolate); assay: MIC broth microdilution, SA-129; type: cell-based, Staphylococcus aureus
# Procedure: as §3, §4
# [10] = system: SA-147 (clinical isolate); assay: MIC broth microdilution, SA-147; type: cell-based, Staphylococcus aureus
# Procedure: as §3, §4
# [11] = system: SA-138 (clinical isolate); assay: MIC broth microdilution, SA-138; type: cell-based, Staphylococcus aureus
# Procedure: as §3, §4
# [12] = system: SA-156 (clinical isolate); assay: MIC broth microdilution, SA-156; type: cell-based, Staphylococcus aureus
# Procedure: as §3, §4
# MRSA BAA-44 = assay: MIC broth microdilution, MRSA BAA-44; type: cell-based, Staphylococcus aureus
# Procedure: as §3, §4
# [13] = Table 1B, read-out: MIC MRSA BAA-1707
# [14] = Table 2A, read-out: MRSA BAA-1707 MIC
# [15] = Table 3, read-out: MIC MRSA BAA-1707
# [16] = Table 4, concentration required to lyse 50% of red blood cells
smiles,measurement,setting,value
"CCCCCCCCCCCCCCCC[N+](C)(C)Cc1ccccc1.[Cl-] [BAC-16, reference compound]",MIC MRSA-2,[1]; Table 4,1.56 µM
same,MIC MRSA 1707,MRSA BAA-1707,1.56 µM
same,MIC MRSE 35984,[2]; Table 4,1.56 µM
same,MIC VRE 700221,[3]; Table 4,3.13 µM
same,MIC A. bau. 1794,[4]; Table 4,6.25 µM
same,MIC PAO1,[5]; Table 4,>100 µM
same,RBC HC50,[6],21.8 µM
CCCCCCCCCCCCCCCCn1cc[n+](C)c1C.[I-] [Compound 8],MRSA-2 MIC,[1],1.17^a μM
same,MIC,MRSA BAA-1707; [13],0.39 µM
same,MIC,MRSA BAA-1707; [14],0.39 µM
same,MIC,MRSA BAA-1707; [15],0.39 µM
same,MIC MRSA 1707,MRSA BAA-1707,0.39 µM
same,MIC MRSE 35984,[2],1.17a micromolar
same,MIC S. epidermidis MRSE 35984,[2],1.17^a
same,MRSE 35984 MIC,[2],1.17^a μM
same,MIC E. faecium VRE 700221,[3],2.35^a
same,MIC VRE 700221,[3],2.35a micromolar
same,VRE MIC,[3],2.35^a μM
same,MIC A. bau. 1794,[4],12.5 µM
same,MIC A. baumannii 1794,[4],12.5
same,MIC,[7]; Table 1B,1.56 µM
same,MIC,[7]; Table 3,1.56 µM
same,MIC,[8]; Table 1B,1.56 µM
same,MIC,[8]; Table 3,1.56 µM
same,MIC,[9]; Table 1B,1.56 µM
same,MIC,[9]; Table 3,1.56 µM
same,MIC SA-147,[10]; Table 1B,1.17^a μM
same,MIC SA-147,[10]; Table 3,1.17^a μM
same,MIC SA-138,[11]; Table 1B,2.35^a μM
same,MIC SA-138,[11]; Table 3,2.35^a μM
same,MIC,[12]; Table 1B,1.56 µM
same,MIC,[12]; Table 3,1.56 µM
same,MIC,MRSA BAA-44; Table 1B,1.56 µM
same,MIC,MRSA BAA-44; Table 3,1.56 µM
same,HC50,[6]; Table 1A,13 µM
same,RBC HC50,[6]; [16],13.0 µM
CCCCCCCCCCCCCCCCn1cc[n+](CCO)c1C.[Br-] [Compound 11],MIC MRSA-2,[1]; Table 1A,1.56 µM
same,MIC,[1]; Table 1B,0.78 µM
same,MRSA-2 MIC,[1]; Table 2A,1.56 µM
same,MIC MRSA-2,[1]; Table 3,1.17^a μM
same,MIC MRSA-2,[1]; Table 4,1.17a micromolar
same,MIC,MRSA BAA-1707; [13],0.39 µM
same,MIC,MRSA BAA-1707; [14],0.39 µM
same,MIC,MRSA BAA-1707; [15],0.39 µM
same,MIC MRSA 1707,MRSA BAA-1707,0.39 µM
same,MIC S. epidermidis MRSE 35984,[2]; Table 1A,0.59^a
same,MRSE 35984 MIC,[2]; Table 2A,0.59^a μM
same,MIC MRSE 35984,[2]; Table 4,0.59a micromolar
same,MIC E. faecium VRE 700221,[3]; Table 1A,1.56 µM
same,VRE MIC,[3]; Table 2A,1.56 µM
same,MIC VRE 700221,[3]; Table 4,1.56 µM
same,MIC A. baumannii 1794,[4]; Table 1A,6.25
same,MIC A. bau. 1794,[4]; Table 4,6.25 µM
same,MIC PAO1,[5]; Table 1A,> 100 µM
same,MIC PAO1,[5]; Table 4,>100 µM
same,MIC S. aureus 29213,[7]; Table 1B,1.17^a μM
same,MIC S. aureus 29213,[7]; Table 3,1.17^a μM
same,MIC MRSA-1,[8]; Table 1B,1.17^a μM
same,MIC MRSA-1,[8]; Table 3,1.17^a μM
same,MIC,[9]; Table 1B,1.56 µM
same,MIC,[9]; Table 3,1.56 µM
same,MIC SA-147,[10]; Table 1B,1.17^a μM
same,MIC SA-147,[10]; Table 3,1.17^a μM
same,MIC,[11]; Table 1B,1.56 µM
same,MIC,[11]; Table 3,1.56 µM
same,MIC,[12]; Table 1B,1.56 µM
same,MIC,[12]; Table 3,1.56 µM
same,MIC,MRSA BAA-44; Table 1B,1.56 µM
same,MIC,MRSA BAA-44; Table 3,1.56 µM
same,HC50,[6]; Table 1A,6.8 µM
same,RBC HC50,[6]; [16],6.8 µM
"CCCCCCCCCCCC[N+](C)(C)CC[N+](C)(C)CC[N+](C)(C)CCCCCCCCCCCC [QAC-10, reference compound]",MIC,[1]; Table 1,3.13 µM
same,MIC MRSA-2,[1]; Table 1A,3.13 µM
same,MIC MRSA-2,[1]; Table 1B,2.35^a μM
same,MRSA-2 MIC,[1]; Table 2A,2.35^a μM
same,MIC,[1]; Table 3,3.13 µM
same,MIC MRSA-2,[1]; Table 4,3.13 µM
same,MIC MRSE 35984,[2]; Table 1,2.35^a μM
same,MIC S. epidermidis MRSE 35984,[2]; Table 1A,2.35^a
same,MRSE 35984 MIC,[2]; Table 2,2.35^a μM
same,MRSE 35984 MIC,[2]; Table 2A,2.35^a μM
same,MIC MRSE 35984,[2]; Table 4,2.35a micromolar
same,MIC VRE 700221,[3]; Table 1,2.35^a μM
same,MIC E. faecium VRE 700221,[3]; Table 1A,2.35^a
same,VRE 700221 MIC,[3]; Table 2,2.35^a μM
same,MIC VRE 700221,[3]; Table 4,2.35a micromolar
same,MIC against multidrug-resistant A. baumannii,[4],6.25 µM
same,MIC,"[4]; Table 1, read-out: MIC A. baumannii 1794",6.25 µM
same,MIC A. baumannii 1794,[4]; Table 1A,6.25
same,MIC A. bau. 1794,[4]; Table 4,6.25 µM
same,MIC against P. aeruginosa,[5],9.38 µM
same,MIC PAO1,[5]; Table 1,9.38^a μM
same,MIC PAO1,[5]; Table 1A,9.38^a
same,MIC PAO1,[5]; Table 4,9.38a micromolar
same,MIC S. aureus 29213,[7]; Table 1B,4.69^a μM
same,MIC S. aureus 29213,[7]; Table 3,4.69^a μM
same,MIC,[8]; Table 1B,3.13 µM
same,MIC MRSA-1,[8]; Table 3,4.69^a μM
same,MIC SA-129,[9]; Table 1B,2.35^a μM
same,MIC SA-129,[9]; Table 3,2.35^a μM
same,MIC,[10]; Table 1B,3.13 µM
same,MIC,[10]; Table 3,3.13 µM
same,MIC SA-138,[11]; Table 1B,2.35^a μM
same,MIC SA-138,[11]; Table 3,2.35^a μM
same,MIC SA-156,[12]; Table 1B,2.35^a μM
same,MIC SA-156,[12]; Table 3,2.35^a μM
same,MIC MRSA BAA-44,MRSA BAA-44; Table 1B,2.35^a μM
same,MIC MRSA BAA-44,MRSA BAA-44; Table 3,2.35^a μM
same,HC50,[6],7.92 µM
same,hemolytic activity,[6],potent hemolytic activities

# Source: patent US11419335B2, “N-arylated analogues and uses thereof” (University of Florida Research Foundation, Incorporated, priority 2016, dated 2022)
